In PubChem BioAssay AID248 (DTP/NCI, 2004):
Inconclusive results and toxic doses are left out.

Test system: L1210 leukemia ip in BDF1 mice, survival T/C
Experiment: NCI In Vivo Anticancer Drug Screen. Data for tumor model L1210 Leukemia (intraperitoneal) in B6D2F1 (BDF1) mice
Settings: endpoint: mean survival time, higher = longer survival
Method in brief: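 Antitumor effect is assessed in tumor-bearing animals. Survival in the compound arm is compared with a vehicle-dosed control arm and expressed as their quotient.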

CC(=O)Nc1ccc2nc3ccc(NC(C)=O)cc3[n+](-c3ccccc3)c2c1
T/C (dose: 0.25 mg/kg/injection, schedule: Q01DX Z (ip), vehicle: methylcellulose (MC)): 105 % of control | T/C (dose: 0.5 mg/kg/injection, schedule: Q01DX Z (ip), vehicle: methylcellulose (MC)): 121 % of control | T/C (dose: 0.75 mg/kg/injection, schedule: Q01DX009 (ip), vehicle: saline): 111 % of control | T/C (dose: 1.25 mg/kg/injection, schedule: Q#A X Z (ip), vehicle: saline): 89 % of control | T/C (dose: 1.5 mg/kg/injection, schedule: Q01DX009 (ip), vehicle: saline): 114 % of control | T/C (dose: 2.5 mg/kg/injection, schedule: Q01DX Z (ip), vehicle: saline): 98 % of control | T/C (dose: 2.5 mg/kg/injection, schedule: Q#A X Z (ip), vehicle: saline): 109 % of control | T/C (dose: 3.0 mg/kg/injection, schedule: Q01DX009 (ip), vehicle: saline): 122 % of control | T/C (dose: 4.4 mg/kg/injection, schedule: Q07DX Z (ip), vehicle: saline): 105 % of control | T/C (dose: 5.0 mg/kg/injection, schedule: Q01DX Z (ip), vehicle: saline): 118 % of control | T/C (dose: 5.0 mg/kg/injection, schedule: Q#A X Z (ip), vehicle: saline): 123 % of control | T/C (dose: 6.0 mg/kg/injection, schedule: Q01DX009 (ip), vehicle: saline): 120 % of control | T/C (dose: 7.5 mg/kg/injection, schedule: Q03DX Z (ip), vehicle: saline): 111 % of control | T/C (dose: 8.8 mg/kg/injection, schedule: Q07DX Z (ip), vehicle: saline): 110 % of control | T/C (dose: 10.0 mg/kg/injection, schedule: Q01DX009 (sc), vehicle: propolene glycol): 97 % of control | T/C (dose: 10.0 mg/kg/injection, schedule: Q01DX015 (ip), vehicle: propolene glycol): 152 % of control | T/C (dose: 12.5 mg/kg/injection, schedule: Q01DX Z (ip), vehicle: methylcellulose (MC)): 150 % of control | T/C (dose: 15.0 mg/kg/injection, schedule: Q03DX Z (ip), vehicle: saline): 118 % of control | T/C (dose: 17.5 mg/kg/injection, schedule: Q07DX Z (ip), vehicle: saline): 115 % of control | T/C (dose: 20.0 mg/kg/injection, schedule: Q01DX010 (sc), vehicle: propolene glycol): 96 % of control | T/C (dose: 20.0 mg/kg/injection, schedule: Q01DX Z (ip), vehicle: saline): 123 % of control | T/C (dose: 20.0 mg/kg/injection, schedule: Q#A X Z (ip), vehicle: saline): 180 % of control | T/C (dose: 25.0 mg/kg/injection, schedule: Q01DX Z (ip), vehicle: methylcellulose (MC)): 166 % of control | T/C (dose: 31.25 mg/kg/injection, schedule: Q01DX009 (ip), vehicle: saline): 164 % of control | T/C (dose: 31.3 mg/kg/injection, schedule: Q01DX009 (ip), vehicle: saline): 161 % of control | T/C (dose: 40.0 mg/kg/injection, schedule: Q01DX010 (sc), vehicle: propolene glycol): 102 % of control | T/C (dose: 40.0 mg/kg/injection, schedule: Q01DX015 (ip), vehicle: propolene glycol): 172 % of control | T/C (dose: 40.0 mg/kg/injection, schedule: Q01DX Z (ip), vehicle: saline): 172 % of control | T/C (dose: 50.0 mg/kg/injection, schedule: Q01DX009 (ip), vehicle: saline): 162 % of control | T/C (dose: 50.0 mg/kg/injection, schedule: Q01DX Z (ip), vehicle: methylcellulose (MC)): 100 % of control | T/C (dose: 64.0 mg/kg/injection, schedule: Q01DX010 (iv), vehicle: saline): 97 % of control | T/C (dose: 80.0 mg/kg/injection, schedule: Q01DX009 (oral), vehicle: propolene glycol): 98 % of control | T/C (dose: 80.0 mg/kg/injection, schedule: Q01DX009 (sc), vehicle: propolene glycol): 95 % of control | T/C (dose: 100.0 mg/kg/injection, schedule: Q01DX009 (ip), vehicle: saline): 206 % of control | T/C (dose: 120.0 mg/kg/injection, schedule: Q01DX009 (oral), vehicle: propolene glycol): 98 % of control | T/C (dose: 120.0 mg/kg/injection, schedule: Q03DX Z (ip), vehicle: saline): 159 % of control | T/C (dose: 128.0 mg/kg/injection, schedule: Q01DX010 (iv), vehicle: saline): 102 % of control | T/C (dose: 175.0 mg/kg/injection, schedule: Q01DX001 (ip), vehicle: saline): 105 % of control | T/C (dose: 222.0 mg/kg/injection, schedule: Q01DX Z (oral), vehicle: saline): 116 % of control | T/C (dose: 256.0 mg/kg/injection, schedule: Q01DX010 (iv), vehicle: saline): 108 % of control | T/C (dose: 265.0 mg/kg/injection, schedule: Q01DX001 (ip), vehicle: saline): 108 % of control | T/C (dose: 270.0 mg/kg/injection, schedule: Q01DX009 (oral), vehicle: propolene glycol): 98 % of control | T/C (dose: 333.0 mg/kg/injection, schedule: Q01DX Z (oral), vehicle: saline): 120 % of control | T/C (dose: 405.0 mg/kg/injection, schedule: Q01DX009 (oral), vehicle: propolene glycol): 102 % of control | T/C (dose: 480.0 mg/kg/injection, schedule: Q03DX Z (ip), vehicle: saline): 112 % of control | T/C (dose: 960.0 mg/kg/injection, schedule: Q03DX Z (ip), vehicle: saline): 86 % of control
